Laboratory results taken from the NIST ThermoML archive (doi:10.1021/je034102r).

Assay: molar heat capacity at constant pressure
Details: 101.33 kPa, Liquid, heat bridge-scanning calorimeter

CCCCn1cc[n+](C)c1.F[P-](F)(F)(F)(F)F [1-butyl-3-methylimidazolium hexafluorophosphate]
Details | molar heat capacity at constant pressure [J/K/mol]
451.55 K | 488.51
451.69 K | 488.51
451.82 K | 489.08
451.96 K | 489.36
452.1 K | 489.36
452.23 K | 489.08
452.53 K | 489.08
452.67 K | 488.79
452.8 K | 489.65
452.94 K | 490.5
453.07 K | 491.07
453.21 K | 490.5
453.35 K | 490.21
453.48 K | 489.93
453.62 K | 489.65
453.92 K | 489.65
454.06 K | 489.93
454.2 K | 489.93
454.33 K | 489.93
454.47 K | 489.65
454.61 K | 489.65
454.74 K | 489.93
454.88 K | 489.93
455.02 K | 489.93
455.15 K | 489.93
455.29 K | 489.93
455.59 K | 490.5
455.72 K | 490.5
455.86 K | 490.21
456 K | 490.5
456.13 K | 490.78
456.28 K | 490.78
456.42 K | 490.78
456.56 K | 490.78
456.69 K | 491.07
457 K | 491.35
457.13 K | 491.35
457.27 K | 491.35
457.41 K | 491.07
457.54 K | 491.07
457.68 K | 491.64
457.82 K | 491.64
457.95 K | 491.64
458.09 K | 491.64
458.23 K | 492.2
458.37 K | 492.49
458.66 K | 492.49
458.8 K | 492.2
458.93 K | 491.92
459.07 K | 491.92
459.21 K | 491.92
459.35 K | 492.2
459.48 K | 492.49
459.62 K | 492.77
459.76 K | 493.34
460.06 K | 492.49
460.19 K | 492.77
460.33 K | 494.19
460.47 K | 495.05
460.6 K | 494.76
460.74 K | 494.48
460.88 K | 493.62
461.01 K | 493.06
461.15 K | 492.77
461.28 K | 492.77
461.42 K | 493.06
461.72 K | 493.34
461.85 K | 493.06
461.99 K | 492.77
462.12 K | 493.06
462.26 K | 493.06
462.4 K | 492.77
462.53 K | 493.34
462.67 K | 493.06
462.82 K | 493.06
463.12 K | 493.34
463.26 K | 493.06
463.39 K | 493.62
463.53 K | 493.34
463.67 K | 493.34
463.81 K | 493.62
463.94 K | 493.62
464.08 K | 493.62
464.22 K | 493.62
464.35 K | 494.48
464.49 K | 495.33
464.79 K | 497.32
464.92 K | 496.18
465.06 K | 495.33
465.2 K | 494.76
465.34 K | 494.48
465.47 K | 495.05
465.61 K | 495.9
465.75 K | 495.9
465.89 K | 496.47
466.19 K | 494.76
